Test results published in ChEMBL document CHEMBL1156190, “Virtual screening for the identification of novel nonsteroidal glucocorticoid modulators” (J Med Chem, 2010).
Active and inactive are the calls of the source. The rule behind the calls is not given here.

What was measured:
[1] = target: Estrogen receptor beta (Homo sapiens) (UniProt Q92731); experiment: Displacement of fluoromone from human recombinant ERbeta assessed as reduction of maximum polarization by fluorescence polarization assay
[2] = target: T1, Glucocorticoid receptor (Homo sapiens) (UniProt P04150); experiment: Transrepression activity at glucocorticoid receptor in human A549 cells assessed as inhibition of IL-1-alpha-induced IL6 expression at 10 uM after 24 hrs by ELISA; type: cell-based
T1 sequence (whole entry): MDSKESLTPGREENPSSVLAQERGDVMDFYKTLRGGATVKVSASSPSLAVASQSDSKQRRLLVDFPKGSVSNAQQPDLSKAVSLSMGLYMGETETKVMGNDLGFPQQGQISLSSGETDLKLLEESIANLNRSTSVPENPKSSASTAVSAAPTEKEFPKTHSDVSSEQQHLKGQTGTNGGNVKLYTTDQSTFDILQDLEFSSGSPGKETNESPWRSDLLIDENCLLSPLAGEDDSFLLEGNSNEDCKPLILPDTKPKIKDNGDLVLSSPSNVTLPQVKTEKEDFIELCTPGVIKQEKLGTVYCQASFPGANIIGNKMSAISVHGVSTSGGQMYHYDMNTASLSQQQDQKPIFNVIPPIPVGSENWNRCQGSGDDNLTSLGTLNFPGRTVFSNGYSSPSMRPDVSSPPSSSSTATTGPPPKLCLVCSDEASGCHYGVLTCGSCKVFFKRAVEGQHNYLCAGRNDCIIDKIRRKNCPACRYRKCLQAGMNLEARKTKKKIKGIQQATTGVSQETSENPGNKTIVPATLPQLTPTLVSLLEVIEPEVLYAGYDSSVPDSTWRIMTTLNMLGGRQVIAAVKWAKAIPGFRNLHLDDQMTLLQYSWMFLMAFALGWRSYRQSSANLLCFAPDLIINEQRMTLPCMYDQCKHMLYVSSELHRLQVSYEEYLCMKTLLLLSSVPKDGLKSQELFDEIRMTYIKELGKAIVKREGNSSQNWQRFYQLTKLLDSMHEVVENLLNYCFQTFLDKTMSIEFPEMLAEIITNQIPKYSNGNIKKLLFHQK

[3] = target: T2, Peroxisome proliferator-activated receptor gamma (Homo sapiens) (UniProt P37231); experiment: Displacement of fluoromone from human recombinant PPARgamma assessed as reduction of maximum polarization by fluorescence polarization assay
T2 sequence (whole entry): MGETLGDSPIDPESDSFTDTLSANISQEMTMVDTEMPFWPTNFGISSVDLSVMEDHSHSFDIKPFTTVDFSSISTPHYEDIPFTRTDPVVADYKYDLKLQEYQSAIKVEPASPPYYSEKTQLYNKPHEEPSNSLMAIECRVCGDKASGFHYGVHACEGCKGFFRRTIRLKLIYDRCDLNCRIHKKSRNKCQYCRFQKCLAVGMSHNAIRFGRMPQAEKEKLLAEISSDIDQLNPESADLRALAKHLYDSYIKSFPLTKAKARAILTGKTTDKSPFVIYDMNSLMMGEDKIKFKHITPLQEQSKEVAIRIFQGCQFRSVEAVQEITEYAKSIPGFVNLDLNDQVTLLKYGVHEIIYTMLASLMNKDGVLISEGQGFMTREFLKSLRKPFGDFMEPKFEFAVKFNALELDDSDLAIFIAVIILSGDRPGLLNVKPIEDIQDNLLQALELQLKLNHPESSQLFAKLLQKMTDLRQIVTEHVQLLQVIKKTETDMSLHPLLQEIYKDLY

[4] = target: T1, Glucocorticoid receptor (Homo sapiens); experiment: Displacement of fluoromone from human glucocorticoid receptor LBD at 10 uM assessed as reduction of maximum polarization by fluorescence polarization assay relative to control; design: scale not given: the % may be the effect or the level left
[5] = target: T3, Estrogen receptor (Homo sapiens) (UniProt P03372); experiment: Displacement of fluoromone from human recombinant ERalpha assessed as reduction of maximum polarization by fluorescence polarization assay
T3 sequence (whole entry): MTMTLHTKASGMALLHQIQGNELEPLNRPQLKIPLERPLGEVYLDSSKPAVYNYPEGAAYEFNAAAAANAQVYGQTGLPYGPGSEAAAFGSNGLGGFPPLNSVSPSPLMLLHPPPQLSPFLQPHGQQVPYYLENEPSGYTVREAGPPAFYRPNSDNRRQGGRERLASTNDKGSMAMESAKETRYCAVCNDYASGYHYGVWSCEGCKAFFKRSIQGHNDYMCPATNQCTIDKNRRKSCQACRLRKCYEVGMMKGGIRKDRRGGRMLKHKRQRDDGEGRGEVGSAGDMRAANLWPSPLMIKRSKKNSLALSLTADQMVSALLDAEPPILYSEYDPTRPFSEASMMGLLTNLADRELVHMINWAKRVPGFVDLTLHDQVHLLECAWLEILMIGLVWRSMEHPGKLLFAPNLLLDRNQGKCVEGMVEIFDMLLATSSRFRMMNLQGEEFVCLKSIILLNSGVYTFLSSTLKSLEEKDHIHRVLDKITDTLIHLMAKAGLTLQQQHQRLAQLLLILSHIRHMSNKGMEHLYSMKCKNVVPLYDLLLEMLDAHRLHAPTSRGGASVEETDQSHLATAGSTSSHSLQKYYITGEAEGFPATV

Glucocorticoid receptor = target: T4, Glucocorticoid receptor (Homo sapiens, UniProt P04150); experiment: Displacement of [3H]DEX from human glucocorticoid receptor
T4 sequence (P04150 whole entry): T1 sequence (whole entry)

Estrogen receptor beta (Homo sapiens), sequence (Q92731 whole entry): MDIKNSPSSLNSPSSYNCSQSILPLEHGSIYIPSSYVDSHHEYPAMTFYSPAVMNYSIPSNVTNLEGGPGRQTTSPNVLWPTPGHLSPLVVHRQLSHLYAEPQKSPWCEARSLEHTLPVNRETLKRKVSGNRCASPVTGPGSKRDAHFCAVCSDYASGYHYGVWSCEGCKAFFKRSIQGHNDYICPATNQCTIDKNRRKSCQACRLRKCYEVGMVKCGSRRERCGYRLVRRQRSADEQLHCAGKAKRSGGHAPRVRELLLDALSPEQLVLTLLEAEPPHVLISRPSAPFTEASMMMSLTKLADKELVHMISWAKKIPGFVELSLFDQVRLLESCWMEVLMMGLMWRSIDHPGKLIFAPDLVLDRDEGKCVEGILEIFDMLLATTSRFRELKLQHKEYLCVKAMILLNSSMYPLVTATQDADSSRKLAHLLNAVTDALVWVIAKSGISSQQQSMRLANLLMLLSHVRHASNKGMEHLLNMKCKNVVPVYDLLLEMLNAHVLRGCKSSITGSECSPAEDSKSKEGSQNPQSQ

Structure (SMILES) | Ki (Glucocorticoid receptor) [nM] | other results
O=C1CC(c2ccccc2)CC2=C1C(c1cc(Cl)ccc1Cl)Nc1ccccc1N2 (centres undefined) | – | Activity [1]: inactive; inhibition [2]: inactive; Activity [3]: inactive; Activity [4]: 65%; Activity [5]: inactive
C#COc1ccc2c(c1OC)-c1ccc3c(c1[C@H](CC=C)O2)C(C)=CC(C)(C)N3 | 4.2 | –
C#Cc1cccc2c1-c1ccc3c(c1[C@H](CC=C)O2)C(C)=CC(C)(C)N3 | 6.9 | –
C=C1C(C)CCC(C)(C)[C@@H]1Cc1cc(OC)c(Br)cc1OC(C)=O (some centres undefined) | 4110 | –
CC#C[C@@]1(O)CC[C@@]2(Cc3ccccc3)c3ccc(C(=O)NCc4ccncc4)cc3CC[C@@H]2C1 | 2 | –
C=CC[C@@H]1Oc2ccc(OC#N)c(OC)c2-c2ccc3c(c21)C(C)=CC(C)(C)N3 | 51 | –
C=C1CCC(Br)C(C)(C)[C@@H]1Cc1cc(OC)c(Br)cc1O (some centres undefined) | 3210 | –
COc1c(Br)cc2ccccc2c1-c1c(OC)c(CO)cc2ccccc12 | – | Activity [4]: 50%
C=C1CCC(Br)C(C)(C)[C@H]1Cc1cc(OC)c(Br)cc1O (some centres undefined) | 2470 | –
COc1ccc2c(c1)-c1ccc3c(c1[C@H](c1ccccc1)O2)C(C)=CC(C)(C)N3 | 18 | –
